What was measured:
[1] = test system: normal human epidermal keratinocytes (NHEKs); assay: Fluorescent bead (pseudo-melanosome) phagocytosis enhanced by UVB irradiation; format: cell-based
Description: Test Example 1: Enhancement of Fluorescent Bead Phagocytosis by UVB Irradiation and Enhanced Phagocytosis-Inhibiting Effect by VB6 A culture medium (HuMedia-KG2: manufactured by Kurabo Industries Ltd.) was added to a 96-well plate at 0.1 mL/well, and normal human epidermal keratinocytes (NHEKs) were seeded at a density of 2.5×10^4 cells/well, followed by incubation for 24 hours. These cells were divided into first to fourth groups. In the first group (vitamin B6+UVB group), the medium was replaced by a pyridoxine-containing culture medium (pyridoxine: 1 mM), followed by culturing for 24 hours, and irradiation with 20 mJ/cm^2 of UVB using a UVB broadband lamp manufactured by Koninklijke Philips N.V. was performed, followed by culturing for 24 hours. In the second group (vitamin B6 group), the medium was replaced by a pyridoxine-containing culture medium (pyridoxine: 1 mM), followed by culturing for 24 hours. […] Subsequently, the NHEKs of each group were allowed to incorporate fluorescent beads (manufactured by Thermo Fisher Scientific Inc.) as pseudo-melanosomes for 4 hours, and the uptake amount of the fluorescent beads per unit protein was then measured with a microplate reader (manufactured by Tecan Group Ltd.).

[2] = test system: gene expression levels of keratin-10, involucrin, and loricrin; assay: Degradation of epidermal differentiation potency by fluorescent bead phagocytosis, real-time PCR; format: cell-based, human
Description: Test Example 3: Effect of Improving Degradation of Epidermal Differentiation Potency by Fluorescent Bead Phagocytosis A culture medium (HuMedia-KG2) was added to a 96-well plate at 0.1 mL/well, and normal human epidermal keratinocytes (NHEKs) were seeded at a density of 2.5×10^4 cells/well, followed by incubation for 24 hours. These cells were divided into first to third groups. In the first group (vitamin B6+bead group), the medium was replaced by a pyridoxine-containing culture medium (pyridoxine: 1 mM), followed by culturing for 24 hours. The NHEKs were allowed to incorporate fluorescent beads (manufactured by Thermo Fisher Scientific Inc.) as pseudo-melanosomes for 4 hours, followed by further culturing in a fresh culture medium (HuMedia-KG2) for 20 hours. In the second group (bead group), after culturing for 24 hours, the NHEKs were allowed to incorporate fluorescent beads (manufactured by Thermo Fisher Scientific Inc.) as pseudo-melanosomes for 4 hours, followed by further culturing in a fresh culture medium (HuMedia-KG2) for 20 hours. In the third group (control group), the NHEKs were directly cultured for 48 hours. Subsequently, total RNA was extracted from the NHEKs of each group, and cDNA was produced by reverse transcription. Real-time PCR was performed using this cDNA as a template to detect gene expression levels of keratin-10, involucrin, and loricrin.

[3] = test system: normal human epidermal keratinocytes (NHEKs); assay: Fluorescent bead phagocytosis enhanced by BSO treatment; format: cell-based; conditions: 50 μM BSO, pyridoxine 0.25 mM, 0.5 mM, or 1 mM, FIG. 2
Description: Test Example 2: Enhancement of Fluorescent Bead Phagocytosis by BSO Treatment and Enhanced Phagocytosis-Inhibiting Effect by VB6 A culture medium (HuMedia-KG2) was added to a 96-well plate at 0.1 mL/well, and normal human epidermal keratinocytes (NHEKs) were seeded at a density of 2.5×10^4 cells/well, followed by incubation for 24 hours. These cells were divided into first to fourth groups. In the first group (vitamin B6+BSO group), treatment with 50 μM of buthionine sulfoximine (BSO: manufactured by Sigma-Aldrich Co. LLC) was performed for 24 hours, and the medium was then replaced by a pyridoxine-containing culture medium (pyridoxine: 0.25 mM, 0.5 mM, or 1 mM), followed by culturing for 24 hours. In the second group (vitamin B6 group), the medium was replaced by a pyridoxine-containing culture medium (pyridoxine: 0.25 mM, 0.5 mM, or 1 mM), followed by culturing for 24 hours. In the third group (BSO group), treatment with 50 μM of buthionine sulfoximine (BSO) was performed for 24 hours, followed by culturing in a KG2 culture medium for 24 hours. […] Subsequently, the NHEKs of each group were allowed to incorporate fluorescent beads (manufactured by Thermo Fisher Scientific Inc.) for 4 hours, and the uptake amount of the fluorescent beads per unit protein was then measured with a microplate reader (manufactured by Tecan Group Ltd.).

Row | Compound | effect on increase in melanosome phagocytosis, summary statement on the Examples ([1]; general statement covering Test Examples 1 and 2) | effect on epidermal differentiation potency, summary statement on the Examples ([2]; general statement covering Test Example 3) | effect on increase in melanosome phagocytosis (uptake amount of fluorescent beads per unit protein) ([1]; NHEKs, pyridoxine 1 mM, 20 mJ/cm^2 UVB, FIG. 1) | effect on increase in melanosome phagocytosis (uptake amount of fluorescent beads per unit protein) [3] | effect on epidermal differentiation potency (gene expression of keratin-10, involucrin, loricrin) ([2]; NHEKs, pyridoxine 1 mM, fluorescent beads 4 hours, FIG. 3)
1 | vitamin B6 | excellent effects of inhibiting an increase in melanosome phagocytosis | improving epidermal differentiation potency | – | – | –
2 | Cc1ncc(CO)c(CO)c1O [pyridoxine] | – | – | inhibiting an increase in melanosome phagocytosis | inhibiting an increase in melanosome phagocytosis | improving epidermal differentiation potency

— patent US20230111066A1, “PIGMENTED SPOT FORMATION INHIBITOR, INCREASED MELANOSOME PHAGOCYTOSIS INHIBITOR, AND EPIDERMAL DIFFERENTIATION POTENCY IMPROVER” (SSP CO., LTD., priority 2021, published 2023)
